# How the values were obtained:
# PDE4 = assay: Inhibition of PDE4 activity (cytosol from human neutrophils, [3H]cAMP hydrolysis); type: biochemical; conditions: 0.5 μM cAMP, Motapizone (1 μM) included to suppress PDE3 activity
# Procedure: Method for Measuring Inhibition of PDE4 Activity
# PDE4 activity was determined as described by Thompson et al. (Adv Cycl Nucl Res 10: 69-92, 1979) with some modifications (Bauer and Schwabe, Naunyn-Schmiedeberg's Arch Pharmacol 311: 193-198, 1980). At a final assay volume of 200 μl (96 well microtiter plates) the assay mixture contained 20 mM Tris (pH 7.4), 5 mM MgCl2, 0.5 μM cAMP, [^3H]cAMP (about 30,000 cpm/assay), the test compound and an aliquot of cytosol from human neutrophils which mainly contains PDE4 activity as described by Schudt et al. (Naunyn-Schmiedeberg's Arch Pharmacol 344: 682-690, 1991); the PDE3-specific inhibitor Motapizone (1 μM) was included to suppress PDE3 activity originating from contaminating platelets. Serial dilutions of the compounds were prepared in DMSO and further diluted 1:100 (v/v) in the assays to obtain the desired final concentrations of the inhibitors at a DMSO concentration of 1 % (v/v) which by itself only slightly affected PDE4 activity.
# After preincubation for 5 min at 37° C., the reaction was started by the addition of substrate (cAMP) and the assays were incubated for further 15 min at 37° C. 50 μl of 0.2 N HCl was added to stop the reaction and the assays were left on ice for about 10 min. Following incubation with 25 μg 5′-nucleotidase (Crotalus atrox snake venom) for 10 min at 37° C., the assays were loaded on QAE Sephadex A-25 (1 ml bed volume). The columns were eluted with 2 ml of 30 mM ammonium formiate (pH 6.0) and the eluate was counted for radioactivity. Results were corrected for blank values (measured in the presence of denatured protein) which were below 5% of total radioactivity. […] The IC50-values for the compounds according to the invention for the inhibition of the PDE4 activity were determined from the concentration-inhibition curves by nonlinear-regression.
# The inhibitory values determined for the compounds according to the invention follow from the following table A, which the numbers of the compounds correspond to the numbers of the examples.
melting point,Structure (SMILES),Inhibition of PDE4 acitivity [measured as −logIC50 (mol/l)] (PDE4)
159 to 161 °C,"COc1ccc(C2=NN(C3CC[N+]([O-])(CC(N)=O)CC3)C(=O)C3CC=CCC23)cc1OC [compound 1, 2-{4-[(4aS,8aR)-4-(3,4-Dimethoxy-phenyl)-1-oxo-4a,5,8,8a-tetrahydro-1H-phthalazin-2-yl]-1-oxy-piperidin-1-yl}-acetamide]",8.31
130 to 132 °C,"COc1ccc(C2=NN(C3CC[N+]([O-])(CC(=O)NC(C)C)CC3)C(=O)C3CC=CCC23)cc1OC [compound 2, 2-{4-[(4aS,8aR)-4-(3,4-Dimethoxy-phenyl)-1-oxo-4a,5,8,8a-tetrahydro-1H-phthalazin-2yl]-1-oxy-piperidin-1-yl}-N-isopropyl-acetamide]",9.3
176 to 177 °C,COc1ccc(C2=NN(C3CC[N+]([O-])(CC(N)=O)CC3)C(=O)C3CCCCC23)cc1OC (stereo not drawn) [compound 3],7.5

# — patent US20060166995A1, “Piperidine-n-oxide-derivatives” (ALTANA PHARMA AG, priority 2002, published 2006)
